Reference: patent US9187470B2, “Anti-mucus drugs and uses therefor” (Washington University, priority 2012, dated 2015)
Read-outs that look alike come from different tables or passages of the source.

Assays:
MUC5AC [1] = assay: IL-13-induced MUC5AC production in primary-culture human tracheal epithelial cells (qPCR, cell-based ELISA); conditions: for IL-13-induced MUC5AC production: FIG. 6h
MAPK13 [2] = target: T1, MAPK13 (Homo sapiens (Human), UniProt O15264); assay: MAPK inhibitor assay: immobilized metal affinity polarization (IMAP) assay with activated MAPK13; format: biochemical; conditions: for MAPK13 inhibitory activity (in words): IMAP assay, FIG. 6f
Experimental: MAPK inhibitor assay. The MAPK13 blocking activity of test compounds was determined using an immobilized metal affinity polarization (IMAP) assay containing activated MAPK13, FITC-labeled substrate, and test compound. Full-length 6-His-tagged MAPK13 and constitutively active GST-MKK6 were prepared as described below. Activated MAPK13 was generated in 50 mM Hepes, 10 mM MgCl2 and 1 mM DTT, containing 1 μM MAPK13, 2 μM MKK6 and 50 μM ATP for 1 h at 25° C. MKK6 was removed by incubation with glutathione SEPHAROSE 4B beads (GE Healthcare Biosciences). […] IMAP assays were performed in 96-well non-treated half-area black plates or 384-well black plates (Corning Inc., Corning, N.Y.) in a final reaction volume of 20 μl using the linear phase of the rate kinetics. […] The reaction proceeded for 20 min at 25° C. in 10 mM Tris-HCl, 10 mM MgCl2, 0.1% BSA, 0.05% NaN3, 1 mM DT, pH 7.2 after which 60 μl of tri-valent metal nanoparticles containing IMAP binding reagent (Molecular Devices, Sunnyvale, Calif.) was added for 80 min at 25° C. The IMAP binding reagent was optimized at 1:600 (vol/vol) based on the number of acidic residues in the peptide substrate. Fluorescence polarization was measured with a Biotek Synergy 4 multimode plate reader (Biotek, Winooski, Vt.) with excitation at 485 nm and emission at 528 nm. The IC50 values for each compound were determined from the compound concentration versus fluorescence polarization (mP) plot using nonlinear curve fitting with GraphPad Prism software (Graphpad Software, La Jolla, Calif.).
MAPK purification for biochemical assays and crystallization. Full-length human MAPK13 (1-365) and MAPK13 crystallization construct (1-352) were cloned into pET28a as N-terminal 6-His-tagged constructs. […] A pET28a construct of λ-phosphatase was a gift from Dima Klenchin (University of Wisconsin, Madison, Wis.). All constructs were confirmed by sequencing and transformed into Rosetta2 (DE3) E. coli (EMD Millipore, Billerica, Mass.) and expressed as soluble proteins that were purified using the specific affinity tags followed by gel filtration chromatography. […] The final purified MAPK13 for crystallization was stored in buffer containing 20 mM Hepes pH 7.5, 150 mM NaCl, 10% glycerol, and 1 mM DTT.
In concert with this structural analysis, analogs for MAPK13 inhibitory activity were tested using an immobilized metal affinity polarization (IMAP) assay that detected fluorescence polarization as a function of remaining MAPK13 activity.

MAPK13 [3] = target: T1, MAPK13; assay: MAPK13/small molecule binding assay (bio-layer interferometry, Octet); conditions: for slow-off binding kinetics: FIG. 6d,e; for t1/2: complex half-life determined using BLI
Source text: MAPK purification for biochemical assays and crystallization. Full-length human MAPK13 (1-365) and MAPK13 crystallization construct (1-352) were cloned into pET28a as N-terminal 6-His-tagged constructs. A constitutively active mutant MKK6-GST fusion construct (GST-MKK6 Glu) was a gift from Peiqing Sun (Scripps, La Jolla, Calif.). A pET28a construct of λ-phosphatase was a gift from Dima Klenchin (University of Wisconsin, Madison, Wis.). All constructs were confirmed by sequencing and transformed into Rosetta2 (DE3) E. coli (EMD Millipore, Billerica, Mass.) and expressed as soluble proteins that were purified using the specific affinity tags followed by gel filtration chromatography. […] All buffers used during purification (lysis, column, and storage) of MAPK13 required addition of 10% glycerol and 1-5 mM reducing agent (either β-mercaptoethanol or DTT) to prevent precipitation of the recombinant protein. The final purified MAPK13 for crystallization was stored in buffer containing 20 mM Hepes pH 7.5, 150 mM NaCl, 10% glycerol, and 1 mM DTT.
MAPK13/small molecule binding assay. Kinetics of MAPK13 binding to small molecules was assessed using bio-layer interferometry with an Octet (ForteBio, Menlo Park, Calif.). Super-streptavidin-coated biosensors from ForteBio were used to capture biotinylated MAPK13 onto the surface of the sensor. After reaching baseline, sensors were moved to association step containing 2500, 1250, 625, 312.5, or 156.3 nM inhibitor for 300 s and then dissociated for 300 s. Curves were corrected by a double-referencing technique using both biotin-coated pins dipped into the experimental wells and a buffer-only reference. The running buffer consisted of 10 mM Hepes pH 7.5, 150 mM NaCl, 0.05% Tween, and 5% DMSO. Half-lives were calculated from dissociation constants determined from global kinetic analysis.

CLCA1 = CLCA1 levels in IL-13-treated hTECs (qPCR); format: cell-based, human; conditions: IL-13 50 ng/ml, up to 21 d air-liquid interface
MUC5AC [4] = assay: Doxycycline-induced MUC5AC mRNA and protein in NCI-H292-rtTA-hCLCA1 cells; format: cell-based, human; conditions: doxycycline 7.5 μg/ml for 18 h
[5] = primary-culture human airway epithelial cells
[6] = upper part of Table 4, 16-point inhibitor concentration-response curves, unit inferred, read-out: IC50 (IC50 values for MAPK13 inhibition)
[7] = lower part of Table 4, IMAP-based biochemical assay, read-out: MAPK13 IC50

T1 sequence (O15264 whole entry): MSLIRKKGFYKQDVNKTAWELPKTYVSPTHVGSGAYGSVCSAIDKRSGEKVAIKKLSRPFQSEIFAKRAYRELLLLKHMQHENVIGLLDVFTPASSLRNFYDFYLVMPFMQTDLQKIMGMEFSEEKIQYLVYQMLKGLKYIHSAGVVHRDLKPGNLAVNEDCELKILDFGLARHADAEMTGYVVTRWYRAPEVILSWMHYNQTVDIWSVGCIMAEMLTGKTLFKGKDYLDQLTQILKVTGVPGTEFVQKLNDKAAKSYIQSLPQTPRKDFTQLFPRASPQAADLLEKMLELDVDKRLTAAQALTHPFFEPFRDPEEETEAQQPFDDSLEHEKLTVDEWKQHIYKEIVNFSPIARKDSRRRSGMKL

Row | IC50 (MAPK13 [2]; [7]) | t1/2 (MAPK13 [3]) | Structure (SMILES) | MAPK13 inhibitory activity (in words) (MAPK13 [2]) | IC50 (MAPK13 [2]; [6]) | also measured
1 |  |  | Cc1ccc(-n2nc(C(C)(C)C)cc2NC(=O)Nc2ccc(Oc3ccncc3)cc2)cc1 [Compound 62] | most potent MAPK13 inhibition | 280 nM | IC50 (MUC5AC [1]; IL-13-induced, primary-culture human airway epithelial cells, read-out: IC50 for blockade of mucus production): < 10 nM; IL-13-induced MUC5AC production (MUC5AC [1]; [5]): markedly suppressed
2 |  | 1.2 s | O=C(Nc1ccc(Oc2ccncc2)cc1)c1ccnc(N2CCOCC2)c1 [Analog 124, 2-morpholino-N-[4-(4-pyridyloxy)phenyl]pyridine-4-carboxamide] |  |  | 
3 | 8650 nM | 204 s | Cc1ccc(-n2nc(C(C)(C)C)cc2NC(=O)Nc2ccc3c(c2)CN(C(=O)C2CCOCC2)C3)cc1 [Analog 115, 1-[5-tert-butyl-2-(p-tolyl)pyrazol-3-yl]-3-[2-(tetrahydropyran-4-carbonyl)isoindolin-5-yl]urea] |  |  | Relative Dissociation kinetics (MAPK13 [3]; BLI): slow
4 | 10200 nM | 2.8 s | Cc1cn(-c2cccc(C(=O)Nc3ccc(Oc4ccncc4)cc3)c2)cn1 [Analog 117, 3-(4-methylimidazol-1-yl)-N-[4-(4-pyridyloxy)phenyl]benzamide] |  | 15800 nM | MAPK13 Inhibition Biochemical Potency (MAPK13 [2]; class symbols +++, ++, +, ~, legend not given): ~; slow-off binding kinetics (MAPK13 [3]): did not
5 | 27.5 nM | 1200 s | Cc1ccc(-n2nc(C(C)(C)C)cc2NC(=O)Nc2ncc(CCN3CCOCC3)s2)cc1 [Analog 89, 1-[5-tert-butyl-2-(p-tolyl)pyrazol-3-yl]-3-[5-(2-morpholinoethyl)thiazol-2-yl]urea] |  |  | 
6 |  |  | Cc1ccc(-n2nc(C(C)(C)C)cc2NC(=O)Nc2ccc(OCCN3CCOCC3)c3ccccc23)cc1 [BIRB-796, BIRB-796 (Doramapimod)] |  |  | IL-13-induced MUC5AC gene expression (MUC5AC [1]; hTECs, IL-13 50 ng/ml, up to 21 d air-liquid interface): markedly suppressed; corresponding CLCA1 levels / CLCA1 gene expression (CLCA1): without affecting; doxycyline-induced MUC5AC mRNA and protein production (MUC5AC [4]): inhibited
7 |  |  | Cn1c(NC[C@@H](N)Cc2ccccc2)nc(-c2ccncc2)c(-c2ccc3ccccc3c2)c1=O [AMG-548, reference compound] | weak inhibitory activity |  | 

Row | Structure (SMILES) | IC50 (MAPK13 [2]; [7]) | t1/2 (MAPK13 [3]) | MAPK13 inhibitory activity (in words) (MAPK13 [2]) | IC50 (MAPK13 [2]; [6]) | also measured
8 | Cn1nc(C(C)(C)C)cc1NC(=O)Nc1ccc(Oc2ccncc2)cc1 [Compound 61] | 82.7 nM | 111 s | most potent MAPK13 inhibition | 620 nM | IL-13-induced MUC5AC production (MUC5AC [1]; [5]): markedly suppressed; increase in complex half-life (MAPK13 [3]; DFG-out compound 61 compared with DFG-in compound 117 (FIG. 6E)): 40 fold; slow-off binding kinetics (MAPK13 [3]): exhibited slow-off binding kinetics
